In ChEMBL document CHEMBL5512620, “Design and synthesis of forsythin derivatives as anti-inflammatory agents for acute lung injury” (Eur J Med Chem, 2024):

System: RAW264.7
Test: Cytotoxicity activity mouse RAW264.7 cells assessed as effect on cell viability at 25 uM incubated for 24 hrs by MTT assay
Type: toxicity, cell-based
Conditions: raw264.7, 24 h

Compound	Activity
COc1ccc([C@H]2OC[C@@H]3[C@H]2CO[C@@H]3c2ccc(O[C@@H]3O[C@@H](COC(=O)c4cnc5ccccc5c4)[C@H](O)[C@@H](O)[C@@H]3O)c(OC)c2)cc1OC (stereo in doubt)	Non-Toxic
COc1ccc(-n2cc(C(=O)OC[C@H]3O[C@H](Oc4ccc([C@H]5OC[C@H]6[C@@H]5CO[C@H]6c5ccc(OC)c(OC)c5)cc4OC)[C@H](O)[C@@H](O)[C@@H]3O)nn2)cc1	Non-Toxic
COc1ccc([C@@H]2OC[C@H]3[C@@H]2CO[C@@H]3c2ccc(O[C@H]3O[C@H](COC(=O)c4cn(-c5ccc(F)cc5)nn4)[C@@H](O)[C@H](O)[C@H]3O)c(OC)c2)cc1OC	Non-Toxic
COc1cccc(C(=O)OC[C@H]2O[C@H](Oc3ccc([C@H]4OC[C@H]5[C@@H]4CO[C@H]5c4ccc(OC)c(OC)c4)cc3OC)[C@H](O)[C@@H](O)[C@@H]2O)c1	Non-Toxic
COc1ccc([C@H]2OC[C@@H]3[C@H]2CO[C@@H]3c2ccc(O[C@@H]3O[C@@H](COC(=O)c4nccc5ccccc45)[C@H](O)[C@@H](O)[C@@H]3O)c(OC)c2)cc1OC (stereo in doubt)	Non-Toxic
COc1ccc([C@@H]2OC[C@H]3[C@@H]2CO[C@@H]3c2ccc(O[C@H]3O[C@H](COC(=O)/C=C/c4ccccc4)[C@@H](O)[C@H](O)[C@H]3O)c(OC)c2)cc1OC	Non-Toxic
COc1ccc([C@@H]2OC[C@H]3[C@@H]2CO[C@@H]3c2ccc(O[C@H]3O[C@H](COC(=O)[C@H](CC(C)C)NC(=O)OC(C)(C)C)[C@@H](O)[C@H](O)[C@H]3O)c(OC)c2)cc1OC	Non-Toxic
COc1ccc([C@@H]2OC[C@H]3[C@@H]2CO[C@@H]3c2ccc(O[C@H]3O[C@H](COC(=O)[C@H](Cc4c[nH]c5ccccc45)NC(=O)OC(C)(C)C)[C@@H](O)[C@H](O)[C@H]3O)c(OC)c2)cc1OC	Non-Toxic
